Data from ChEMBL document CHEMBL1201861, “Genomics of Drug Sensitity in Cancer screening data, Wellcome Trust Sanger Institute”.
pIC50: −log10 of the molar value.

Tests used:
Assay in all cases: cells
Conditions in all cases: Homo sapiens
SW982 = assay type: functional, cell-based;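 also: growth inhibition of SW982 cells, read out with a cell viability assay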
Description: SANGER: Inhibition of human SW982 cell growth in a cell viability assay.

OVCAR-8 = assay type: functional, cell-based;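 also: growth inhibition of human OVCAR-8 cells, read out by a cell viability assay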
Description: SANGER: Inhibition of human OVCAR-8 cell growth in a cell viability assay.

KINGS-1 = assay type: functional, cell-based;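 also: cell viability assay measuring suppression of KINGS-1 cell growth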
Description: SANGER: Inhibition of human KINGS-1 cell growth in a cell viability assay.

NCI-H1770 = assay type: functional, cell-based;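 also: growth inhibition of NCI-H1770 cells determined with a viability readout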
Description: SANGER: Inhibition of human NCI-H1770 cell growth in a cell viability assay.

LS-1034 = assay type: functional, cell-based
Description: SANGER: Inhibition of human LS-1034 cell growth in a cell viability assay.

C8166 = assay type: functional, cell-based;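 also: growth inhibition of human C8166 cells measured by a cell viability assay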
Description: SANGER: Inhibition of human C8166 cell growth in a cell viability assay.

LB2518-MEL = assay type: functional, cell-based;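 also: growth inhibition of human LB2518-MEL cells, measured with a cell viability assay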
Description: SANGER: Inhibition of human LB2518-MEL cell growth in a cell viability assay.

A704 = assay type: functional, cell-based;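 also: growth inhibition of human A704 cells, read out with a cell viability assay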
Description: SANGER: Inhibition of human A704 cell growth in a cell viability assay.

CPC-N = assay type: functional, cell-based;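 also: growth inhibition of CPC-N cells, with a cell viability assay as the readout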
Description: SANGER: Inhibition of human CPC-N cell growth in a cell viability assay.

NCI-H1299 = assay type: functional, cell-based;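 also: growth inhibition of human NCI-H1299 cells, read out by a cell viability assay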
Description: SANGER: Inhibition of human NCI-H1299 cell growth in a cell viability assay.

SF-126 = assay type: functional, cell-based;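 also: growth inhibition of human SF126 cells, read out with a cell viability assay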
Description: SANGER: Inhibition of human SF126 cell growth in a cell viability assay.

HC-1 = assay type: functional, cell-based;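 also: growth inhibition of HC-1 cells measured by a cell viability assay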
Description: SANGER: Inhibition of human HC-1 cell growth in a cell viability assay.

ML-2 = assay type: functional, cell-based;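 also: growth inhibition of ML-2 cells, measured with a cell viability readout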
Description: SANGER: Inhibition of human ML-2 cell growth in a cell viability assay.

NCI-H1563 = assay type: functional, cell-based;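 also: growth inhibition of human NCI-H1563 cells, read out with a cell viability assay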
Description: SANGER: Inhibition of human NCI-H1563 cell growth in a cell viability assay.

NCI-H2052 = assay type: functional, cell-based;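 also: growth inhibition of NCI-H2052 cells, read out with a cell viability assay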
Description: SANGER: Inhibition of human NCI-H2052 cell growth in a cell viability assay.

KYSE-450 = assay type: functional, cell-based;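 also: cell growth inhibition measured by a viability assay in human KYSE-450 cells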
Description: SANGER: Inhibition of human KYSE-450 cell growth in a cell viability assay.

QIMR-WIL = assay type: functional, cell-based;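 also: growth inhibition of QIMR-WIL cells, read out with a cell viability assay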
Description: SANGER: Inhibition of human QIMR-WIL cell growth in a cell viability assay.

Calu-6 = assay type: functional, cell-based;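 also: growth of human Calu-6 cells, read out by a cell viability assay, IC50 marking inhibition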
Description: SANGER: Inhibition of human Calu-6 cell growth in a cell viability assay.

JEG-3 = assay type: functional, cell-based;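 also: growth inhibition of human JEG-3 cells, read out with a cell viability assay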
Description: SANGER: Inhibition of human JEG-3 cell growth in a cell viability assay.

697 = assay type: functional, cell-based
Description: SANGER: Inhibition of human 697 cell growth in a cell viability assay.

KM-H2 = assay type: functional, cell-based;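 also: growth inhibition of KM-H2 cells, read out by a cell viability assay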
Description: SANGER: Inhibition of human KM-H2 cell growth in a cell viability assay.

SW 962 = assay type: functional, cell-based;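 also: growth inhibition of human SW962 cells, read out by a cell viability assay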
Description: SANGER: Inhibition of human SW962 cell growth in a cell viability assay.

SK-LMS-1 = assay type: functional, cell-based;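 also: growth inhibition of human SK-LMS-1 cells, read out with a cell viability assay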
Description: SANGER: Inhibition of human SK-LMS-1 cell growth in a cell viability assay.

ES6 = assay type: functional, cell-based;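 also: growth inhibition of human ES6 cells, read out with a cell viability assay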
Description: SANGER: Inhibition of human ES6 cell growth in a cell viability assay.

UMC-11 = assay type: functional, cell-based;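 also: growth inhibition of UMC-11 cells, read out with a cell viability assay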
Description: SANGER: Inhibition of human UMC-11 cell growth in a cell viability assay.

IST-SL1 = assay type: functional, cell-based;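 also: growth inhibition of human IST-SL1 cells, read out with a cell viability assay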
Description: SANGER: Inhibition of human IST-SL1 cell growth in a cell viability assay.

OCUB-M = assay type: functional, cell-based;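 also: growth inhibition of the cancer cell line, read out through a cell viability assay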
Description: SANGER: Inhibition of human OCUB-M cell growth in a cell viability assay.

NCI-H1155 = assay type: functional, cell-based;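 also: cell growth inhibition measured by a viability assay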
Description: SANGER: Inhibition of human NCI-H1155 cell growth in a cell viability assay.

no-11 = assay type: functional, cell-based;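 also: growth inhibition of human NO-11 cells, read out with a cell viability assay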
Description: SANGER: Inhibition of human no-11 cell growth in a cell viability assay.

RPMI-8866 = assay type: functional, cell-based
Description: SANGER: Inhibition of human RPMI-8866 cell growth in a cell viability assay.

DB = assay type: functional, cell-based
Description: SANGER: Inhibition of human DB cell growth in a cell viability assay.

KM12 = assay type: functional, cell-based;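 also: KM12 cell growth inhibition, read out with a cell viability assay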
Description: SANGER: Inhibition of human KM12 cell growth in a cell viability assay.

OCI-AML2 = assay type: functional, cell-based;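 also: growth inhibition of OCI-AML2 cells, read out with a cell viability assay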
Description: SANGER: Inhibition of human OCI-AML2 cell growth in a cell viability assay.

NCI-H1355 = assay type: functional, cell-based;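 also: growth inhibition of human NCI-H1355 cells, read out by a cell viability assay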
Description: SANGER: Inhibition of human NCI-H1355 cell growth in a cell viability assay.

A498 = assay type: functional, cell-based;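 also: growth inhibition of human A498 cells, read out with a cell viability assay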
Description: SANGER: Inhibition of human A498 cell growth in a cell viability assay.

SNB-75 = assay type: functional, cell-based;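 also: cell viability assay measuring growth inhibition of human SNB-75 cells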
Description: SANGER: Inhibition of human SNB75 cell growth in a cell viability assay.

LAN-6 = assay type: functional, cell-based;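 also: growth inhibition of LAN-6 cells, determined with a cell viability assay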
Description: SANGER: Inhibition of human LAN-6 cell growth in a cell viability assay.

SF-268 = assay type: functional, cell-based;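 also: growth inhibition of SF-268 cells determined with a cell viability assay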
Description: SANGER: Inhibition of human SF268 cell growth in a cell viability assay.

MDA-MB-157 = assay type: functional, cell-based
Description: SANGER: Inhibition of human MDA-MB-157 cell growth in a cell viability assay.

MKN-45 = assay type: functional, cell-based;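 also: growth inhibition of human MKN-45 cells, measured with a cell viability assay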
Description: SANGER: Inhibition of human MKN45 cell growth in a cell viability assay.

MV4-11 = assay type: functional, cell-based, MV-4-11;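 also: cell viability readout measuring growth inhibition of human MV-4-11 cells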
Description: SANGER: Inhibition of human MV-4-11 cell growth in a cell viability assay.

RS4-11 = assay type: functional, cell-based;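 also: growth inhibition of RS4-11 cells, read out by a cell viability assay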
Description: SANGER: Inhibition of human RS4-11 cell growth in a cell viability assay.

CP66-MEL = assay type: functional, cell-based;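 also: growth inhibition of CP66-MEL cells determined in a cell viability assay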
Description: SANGER: Inhibition of human CP66-MEL cell growth in a cell viability assay.

GB-1 = assay type: functional, cell-based;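 also: growth of GB-1 cells judged by a viability assay, IC50 marks the concentration inhibiting growth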
Description: SANGER: Inhibition of human GB-1 cell growth in a cell viability assay.

HH = assay type: functional, cell-based
Description: SANGER: Inhibition of human HH cell growth in a cell viability assay.

MHH-PREB-1 = assay type: functional, cell-based;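 also: cell viability assay measuring inhibition of proliferation of human MHH-PREB-1 cells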
Description: SANGER: Inhibition of human MHH-PREB-1 cell growth in a cell viability assay.

MDA-MB-453 = assay type: functional, cell-based
Description: SANGER: Inhibition of human MDA-MB-453 cell growth in a cell viability assay.

AM-38 = assay type: functional, cell-based;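 also: growth inhibition of AM-38 cells of human origin, read out by a cell viability assay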
Description: SANGER: Inhibition of human AM-38 cell growth in a cell viability assay.

NB13 = assay type: functional, cell-based;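 also: cell viability readout measuring growth inhibition of human NB13 cells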
Description: SANGER: Inhibition of human NB13 cell growth in a cell viability assay.

ECC4 = assay type: functional, cell-based;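 also: growth inhibition of ECC4 cells, read out with a cell viability assay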
Description: SANGER: Inhibition of human ECC4 cell growth in a cell viability assay.

COLO-684 = assay type: functional, cell-based
Description: SANGER: Inhibition of human COLO-684 cell growth in a cell viability assay.

MS-1 = assay type: functional, cell-based
Description: SANGER: Inhibition of human MS-1 cell growth in a cell viability assay.

MN-60 = assay type: functional, cell-based;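 also: growth inhibition of the MN-60 cell line, determined with a cell viability assay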
Description: SANGER: Inhibition of human MN-60 cell growth in a cell viability assay.

HD-MY-Z = assay type: functional, cell-based;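 also: growth inhibition of HD-MY-Z cells, read out with a cell viability assay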
Description: SANGER: Inhibition of human HD-MY-Z cell growth in a cell viability assay.

UACC-893 = assay type: functional, cell-based
Description: SANGER: Inhibition of human UACC-893 cell growth in a cell viability assay.

HuTu80 = assay type: functional, cell-based, HUTU-80;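 also: growth inhibition of HuTu80 human cells, determined with a cell viability readout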
Description: SANGER: Inhibition of human HUTU-80 cell growth in a cell viability assay.

SNU1 = assay type: functional, cell-based;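 also: growth inhibition of human NCI-SNU-1 cells, measured with a cell viability assay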
Description: SANGER: Inhibition of human NCI-SNU-1 cell growth in a cell viability assay.

ES1 = assay type: functional, cell-based;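 also: growth inhibition of ES1 cells, read out with a cell viability assay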
Description: SANGER: Inhibition of human ES1 cell growth in a cell viability assay.

TE-12 = assay type: functional, cell-based;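 also: growth inhibition of TE-12 cells, read out by a cell viability assay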
Description: SANGER: Inhibition of human TE-12 cell growth in a cell viability assay.

GAK = assay type: functional, cell-based
Description: SANGER: Inhibition of human GAK cell growth in a cell viability assay.

RPMI-8226 = assay type: functional, cell-based
Description: SANGER: Inhibition of human RPMI-8226 cell growth in a cell viability assay.

RCC10RGB = assay type: functional, cell-based
Description: SANGER: Inhibition of human RCC10RGB cell growth in a cell viability assay.

JAR = assay type: functional, cell-based
Description: SANGER: Inhibition of human JAR cell growth in a cell viability assay.

LB831-BLC = assay type: functional, cell-based
Description: SANGER: Inhibition of human LB831-BLC cell growth in a cell viability assay.

NCI-H1838 = assay type: functional, cell-based
Description: SANGER: Inhibition of human NCI-H1838 cell growth in a cell viability assay.

EOL1 = assay type: functional, cell-based
Description: SANGER: Inhibition of human EoL-1-cell cell growth in a cell viability assay.

SMILES: CC(O)(CS(=O)(=O)c1ccc(F)cc1)C(=O)Nc1ccc(C#N)c(C(F)(F)F)c1 (configuration not stated) [BICALUTAMIDE]
- pIC50 (SW982): < 5.99
- pIC50 (OVCAR-8): < 5.99
- pIC50 (KINGS-1): < 5.99
- pIC50 (NCI-H1770): < 5.99
- pIC50 (LS-1034): < 5.99
- pIC50 (C8166): < 5.99
- pIC50 (LB2518-MEL): < 5.99
- pIC50 (A704): < 5.99
- pIC50 (CPC-N): < 5.99
- pIC50 (NCI-H1299): < 5.99
- pIC50 (SF-126): < 5.99
- pIC50 (HC-1): < 5.99
- pIC50 (ML-2): < 5.99
- pIC50 (NCI-H1563): < 5.99
- pIC50 (NCI-H2052): < 5.99
- pIC50 (KYSE-450): < 5.99
- pIC50 (QIMR-WIL): < 5.99
- pIC50 (Calu-6): < 5.99
- pIC50 (JEG-3): < 5.99
- pIC50 697: < 5.99
- pIC50 (KM-H2): < 5.99
- pIC50 (SW 962): < 5.99
- pIC50 (SK-LMS-1): < 5.99
- pIC50 (ES6): < 5.99
- pIC50 (UMC-11): < 5.99
- pIC50 (IST-SL1): < 5.99
- pIC50 (OCUB-M): < 5.99
- pIC50 (NCI-H1155): < 5.99
- pIC50 (no-11): < 5.99
- pIC50 (RPMI-8866): < 5.99
- pIC50 (DB): < 5.99
- pIC50 (KM12): < 5.99
- pIC50 (OCI-AML2): < 5.99
- pIC50 (NCI-H1355): < 5.99
- pIC50 (A498): < 5.99
- pIC50 (SNB-75): < 5.99
- pIC50 (LAN-6): < 5.99
- pIC50 (SF-268): < 5.99
- pIC50 (MDA-MB-157): < 5.99
- pIC50 (MKN-45): < 5.99
- pIC50 (MV4-11): < 5.99
- pIC50 (RS4-11): < 5.99
- pIC50 (CP66-MEL): < 5.99
- pIC50 (GB-1): < 5.99
- pIC50 (HH): < 5.99
- pIC50 (MHH-PREB-1): < 5.99
- pIC50 (MDA-MB-453): < 5.99
- pIC50 (AM-38): < 5.99
- pIC50 (NB13): < 5.99
- pIC50 (ECC4): < 5.99
- pIC50 (COLO-684): < 5.99
- pIC50 (MS-1): < 5.99
- pIC50 (MN-60): < 5.99
- pIC50 (HD-MY-Z): < 5.99
- pIC50 (UACC-893): < 5.99
- pIC50 (HuTu80): < 5.99
- pIC50 (SNU1): < 5.99
- pIC50 (ES1): < 5.99
- pIC50 (TE-12): < 5.99
- pIC50 (GAK): < 5.99
- pIC50 (RPMI-8226): < 5.99
- pIC50 (RCC10RGB): < 5.99
- pIC50 (JAR): < 5.99
- pIC50 (LB831-BLC): < 5.99
- pIC50 (NCI-H1838): < 5.99
- pIC50 (EOL1): < 5.99

SMILES: C/C=C(/C)C(=O)O[C@H]1C(C)=C2[C@H]([C@@H]1OC(=O)CCCCCCC)[C@@](C)(OC(C)=O)C[C@H](OC(=O)CCC)[C@@]1(O)[C@H]2OC(=O)[C@@]1(C)O [THAPSIGARGIN]
- pIC50 (SW982): > 8.70
- pIC50 (OVCAR-8): 7.60
- pIC50 (KINGS-1): 8.12
- pIC50 (NCI-H1770): 7.59
- pIC50 (LS-1034): 7.54
- pIC50 (C8166): 6.72
- pIC50 (LB2518-MEL): 7.76
- pIC50 (A704): 6.61
- pIC50 (CPC-N): 8.00
- pIC50 (NCI-H1299): 9.06
- pIC50 (SF-126): 7.42
- pIC50 (HC-1): 6.96
- pIC50 (ML-2): 7.27
- pIC50 (NCI-H1563): 6.70
- pIC50 (NCI-H2052): 8.19
- pIC50 (KYSE-450): 9.11
- pIC50 (QIMR-WIL): < 6.29
- pIC50 (Calu-6): 8.32
- pIC50 (JEG-3): 8.01
- pIC50 697: > 8.70
- pIC50 (KM-H2): > 8.70
- pIC50 (SW 962): 8.16
- pIC50 (SK-LMS-1): > 8.70
- pIC50 (ES6): > 8.70
- pIC50 (UMC-11): 8.04
- pIC50 (IST-SL1): 7.62
- pIC50 (OCUB-M): 9.22
- pIC50 (NCI-H1155): 6.55
- pIC50 (no-11): 7.23
- pIC50 (RPMI-8866): < 6.29
- pIC50 (DB): 8.59
- pIC50 (KM12): 7.87
- pIC50 (OCI-AML2): 8.09
- pIC50 (NCI-H1355): 8.26
- pIC50 (A498): < 6.29
- pIC50 (SNB-75): 7.49
- pIC50 (LAN-6): < 6.29
- pIC50 (SF-268): 8.65
- pIC50 (MDA-MB-157): < 6.29
- pIC50 (MKN-45): 7.60
- pIC50 (MV4-11): 7.96
- pIC50 (RS4-11): 8.89
- pIC50 (CP66-MEL): 8.44
- pIC50 (GB-1): 6.94
- pIC50 (HH): 7.02
- pIC50 (MHH-PREB-1): 7.90
- pIC50 (MDA-MB-453): < 6.29
- pIC50 (AM-38): 7.83
- pIC50 (NB13): 8.02
- pIC50 (ECC4): < 6.29
- pIC50 (COLO-684): 6.46
- pIC50 (MS-1): 7.53
- pIC50 (MN-60): 7.16
- pIC50 (HD-MY-Z): 7.76
- pIC50 (UACC-893): 7.23
- pIC50 (HuTu80): 9.18
- pIC50 (SNU1): 7.87
- pIC50 (ES1): > 8.70
- pIC50 (TE-12): 7.98
- pIC50 (GAK): 6.70
- pIC50 (RPMI-8226): 7.83
- pIC50 (RCC10RGB): < 6.29
- pIC50 (JAR): < 6.29
- pIC50 (LB831-BLC): 8.40
- pIC50 (NCI-H1838): < 6.29
- pIC50 (EOL1): 7.62
